How the values were obtained:
E. coli = experiment: Sensitization of E. coli to erythromycin (sensitization fold from IC90, OD600, 20 h); assay type: cell-based, Escherichia coli; settings: erythromycin, NA=no activity; for SF (E. coli) at 12.5 μM: compound at 12.5 μM
Protocol: (§1) E. coli bacteria were cultured in Miller's broth at 37° C. overnight prior to treatment. B. subtilis bacteria were cultured in nutrient broth at 37° C. overnight prior to treatment. […] Bacterial density was measured based on OD600.

B. subtilis = experiment: Sensitization of B. subtilis to erythromycin (sensitization fold from IC90, OD600, 20 h); assay type: cell-based, Bacillus subtilis; settings: erythromycin; for SF (B. subtilis) at 6 μM: compound at 6 μM
Protocol: as §1

MRSA [1] = experiment: Sensitization of MRSA to erythromycin (sensitization fold from IC90); assay type: cell-based, Staphylococcus aureus; settings: for SF (MRSA) at 6 μM: compound at 6 μM; for SF (MRSA) at 4 μM: compound at 4 μM; for SF (MRSA) at 12 μM: compound at 12 μM; for SF (MRSA) at 12 μM / SF (MRSA) at 25 μM: NA=no activity; for SF (MRSA) at 25 μM: compound at 25 μM
Protocol: MRSA bacteria were cultured in nutrient broth at 37° C. overnight prior to treatment. […] Bacterial density was measured based on OD600.

MRSA [2] = experiment: MIC of compounds against MRSA (OD600, 48 h); assay type: cell-based; settings: Staphylococcus aureus; for MIC: MIC = 90% growth inhibition, compound alone, 48 h; for inhibition at 12 µM: compound alone at 12 μM, NA=no activity, read-out: Growth inhibition of MRSA at 12 μM; for inhibition at 6 µM: read-out: Growth inhibition of MRSA at 6 μM, compound alone at 6 μM, NA=no activity
Protocol: Bacteria were then cultured with varying concentration of the compounds shown below for 48 hours, and then bacterial density was measured based on OD600. The minimum inhibitory concentration (MIC, 90% growth inhibition) was calculated for each compound, as shown in Table 4 (NA=no activity; --=not measured).

Cc1cc(CSc2ccc(C(=N)N)cc2)cc(CSc2ccc(C(=N)N)cc2)c1 [drawing 744]
SF (E. coli) at 12.5 μM (E. coli): 32 fold | SF (B. subtilis) at 6 μM (B. subtilis; NA=no activity): 32 fold

Cc1cc(CSc2ccc(C3=NCCN3)cc2)cc(CSc2ccc(C3=NCCN3)cc2)c1 [drawing 745]
SF (B. subtilis) at 3 μM (B. subtilis; compound at 3 μM): 4 fold | SF (B. subtilis) at 6 μM (B. subtilis; NA=no activity): 16 fold

Cc1ccc(COc2ccc(C(=N)N)cc2)cc1COc1ccc(C(=N)N)cc1 [drawing 746]
SF (E. coli) at 12.5 μM (E. coli): 4 fold | SF (E. coli) at 25 μM (E. coli; compound at 25 μM): 32 fold | SF (B. subtilis) at 6 μM (B. subtilis; NA=no activity): 16 fold | SF (B. subtilis) at 12 μM (B. subtilis; compound at 12 μM, NA=no activity): 32 fold

Cc1cc(COc2ccc(C(=N)N)cc2)cc(COc2ccc(C(=N)N)cc2)c1 [drawing 834]
SF (MRSA) at 6 μM (MRSA [1]): 32-fold at 6 μM | MIC (MRSA [2]): 25 µM

Cc1cc(COc2ccc(C(=N)NC(C)C)cc2)cc(COc2ccc(C(=N)NC(C)C)cc2)c1 [drawing 835]
SF (MRSA) at 4 μM (MRSA [1]): 32-fold at 4 μM | MIC (MRSA [2]): 25 µM

COc1cc(C(=N)N)ccc1OCc1cc(C)cc(COc2ccc(C(=N)N)cc2OC)c1 [drawing 836]
SF (MRSA) at 6 μM (MRSA [1]): 2-4 fold | SF (MRSA) at 12 μM (MRSA [1]): 8-16 fold | MIC (MRSA [2]): 25 µM | inhibition at 12 µM (MRSA [2]): 10%

Cc1cc(CCc2ccc(C(=N)N)cc2)cc(CCc2ccc(C(=N)N)cc2)c1 [drawing 838]
SF (MRSA) at 3 μM (MRSA [1]; compound at 3 μM): 16-fold at 3 μM | MIC (MRSA [2]): 12 µM

CC(C)NC(=N)c1ccc(OCc2cccc(COc3ccc(C(=N)NC(C)C)cc3)c2F)cc1 [drawing 839]
SF (MRSA) at 4 μM (MRSA [1]): 16-fold at 4 μM | MIC (MRSA [2]): 12.5 µM

CC(C)NC(=N)c1ccc(OCc2cccc(COc3ccc(C(=N)NC(C)C)cc3F)c2F)c(F)c1 [drawing 840]
SF (MRSA) at 6 μM (MRSA [1]): 8 fold | SF (MRSA) at 12 μM (MRSA [1]): 8-16 fold | inhibition at 12 µM (MRSA [2]): 30%

CCCNC(=N)c1ccc(COc2cc(C)cc(OCc3ccc(C(=N)NCCC)cc3)c2)cc1 [drawing 841]
SF (MRSA) at 12 μM (MRSA [1]): 8 fold | SF (MRSA) at 25 μM (MRSA [1]): 8-16 fold | inhibition at 25 µM (MRSA [2]; read-out: Growth inhibition of MRSA at 25 μM, compound alone at 25 μM, NA=no activity): 30%

Cc1cc(COc2ccc(C3=NCCCN3)cc2)cc(COc2ccc(C3=NCCCN3)cc2)c1 [drawing 842]
SF (MRSA) at 12 μM (MRSA [1]): 4 fold | SF (MRSA) at 25 μM (MRSA [1]): 8 fold

COc1cc(C(=N)N)ccc1OCc1cc(COc2ccc(C(=N)N)cc2OC)cc(C(C)(C)C)c1 [drawing 843]
MIC (MRSA [2]): 12 µM

CC(C)(C)c1cc(COc2ccc(C(=N)N)cc2F)cc(COc2ccc(C(=N)N)cc2F)c1 [drawing 844]
inhibition at 6 µM (MRSA [2]): 60%

Cc1cc(COc2cccc(C(=N)N)c2)cc(COc2cccc(C(=N)N)c2)c1 [drawing 845]
SF (MRSA) at 12.5 μM (MRSA [1]; compound at 12.5 μM): 4-fold at 12.5 μM | MIC (MRSA [2]): 25 µM | inhibition at 12.5 µM (MRSA [2]; compound alone at 12.5 μM, read-out: Growth inhibition of MRSA at 12.5 μM): 30%

Cc1cc(COc2ccc(C(=N)N)cc2F)cc(COc2ccc(C(=N)N)cc2F)c1 [drawing 846]
MIC (MRSA [2]): 12 µM | inhibition at 6 µM (MRSA [2]): 20%

From US12595251B2, “Amidines and amidine analogs for the treatment of bacterial infections and potentiation antibiotics” (GEORGIA STATE UNIVERSITY RESEARCH FOUNDATION, INC., priority 2018, dated 2026)
